Data published in patent US7507761B2, “Benzopyran derivatives, method of production and use thereof” (Universite de Liege, priority 2004, dated 2009).
Like-named read-outs stand apart in the source and are kept apart here.

Key:
[1] = tested on: rat pancreatic islets; details: cited from earlier work; for Residual insulin secretion (%) [10 μM]: 10 μM compound, published results (footnotes b, c)
[2] = tested on: rat aorta rings; test: Measurement of tension in rat aorta rings (myorelaxant activity); assay type: cell-based; details: KCl-contracted rat aorta rings; concentration evoking 50% inhibition of plateau phase; mean ± s.e.m. (n); read-out: Myorelaxant activity ED50
Protocol: Measurement of tension in rat aorta rings was performed according to the following procedure.
Experiments were performed with aorta removed from adult fed Wistar rats (Charles River Laboratories, Belgium).
A section of the thoracic aorta was cleared of adhering fat and connective tissue and was cut into transverse rings (3-4 mm long). The endothelium was removed and the segments suspended under 1.5 g tension in an organ bath containing 20 mL of a physiological solution (in mM: NaCl 118, KCl 4.7, CaCl2 2.5, NaHCO3 25, KH2PO4 1.2, MgSO4 1.2, glucose 5). The physiological solution was maintained at 37° C. and continuously bubbled with a mixture of O2 (95%) and CO2 (5%). Isometric contractions were measured with a force-displacement transducer. After 60 minutes of equilibration, the rings were exposed to KCl (30 or 80 mM). When the tension had stabilized, the chroman derivative was added to the bath at increasing concentrations until maximal relaxation (or until 300 µM). Some experiments were repeated in the continuous presence of 1 or 10 µM glibenclamide in the bathing medium.
The relaxation response was expressed as the percentage of the contractile response to KCl. The ED50 values (concentration evoking 50% inhibition of the plateau phase induced by KCl) were assessed from dose-response curves using Datanalyst software (EMKA Technologies, France).

[3] = tested on: rat pancreatic islets; test: Insulin release from incubated rat pancreatic islets; assay type: cell-based; details: 10 μM compound, 16.7 mM glucose, % of control without drug; mean ± s.e.m. (n)
Protocol: Measurement of insulin release from incubated rat pancreatic islets was performed according to the following procedure.
Experiments were performed with pancreatic islets isolated from adult fed Wistar rats (Charles River Laboratories, Belgium).
Groups of 10 islets, each derived from the same batch of islets, were preincubated for 30 minutes at 37° C. in 1 mL of a physiological salt medium (in mM: NaCl 115, KCl 5, CaCl2 2.56, MgCl2 1, NaHCO3 24) supplemented with 2.8 mM glucose, 0.5% (w:v) dialyzed albumin (Sigma) and equilibrated against a mixture of O2 (95%) and CO2 (5%). The islets were then incubated at 37° C. for 90 minutes in 1 mL of the same medium containing 16.7 mM glucose and, in addition, the required benzopyran derivative.
The release of insulin was measured radioimmunologically according to Leclercq-Meyer et al., Endocrinology, 1985, 116, 1168-1174 using rat insulin as a standard.
Residual insulin secretion was expressed as a percentage of the value recorded in control experiments (100%); i.e. in the absence of drug and presence of 16.7 mM glucose. Measurement of 86Rb outflow from perifused rat pancreatic islets was performed according to the following procedure. Groups of 100 islets were incubated for 60 min in a medium containing 16.7 mM glucose and 86Rb (0.15-0.25 mM; 50 μCi/ml). After incubation, the islets were washed three times and then placed in a perifusion chamber. The perifusate was delivered at a constant rate (1.0 ml/min). From the 31st to the 90th min, the effluent was continuously collected over successive periods of 1 min each. An aliquot of the effluent (0.6 ml) was used for scintillation counting. At the end of the perifusion, the radioactive content of the islets was determined. The outflow of 86Rb (cpm/min) was expressed as a fractional outflow rate (% of instantaneous islet content/min; FOR).

| SMILES | Residual insulin secretion (%) [10 μM] [3] | further results |
| --- | --- | --- |
| CC1(C)Oc2ccc(C#N)cc2C(N2CCCC2=O)C1O (stereo not drawn) [Cromakalim, cromakalim] | 94.7 ± 4.3 (24) % | Activity as an inhibitor of insulin secretion (in words) ([1]; background statement, reflects poor activity as PCO on pancreatic KATP channels): poorly active; EC50 [2]: 130 ± 10 nM |
| CC1=NS(=O)(=O)c2cc(Cl)ccc2N1 [Diazoxide, diazoxide] |  | Residual insulin secretion (%) [10 μM] [1]: 71.7 ± 2.8 (38)^b % |
| Cc1cccc(NC(=S)NC2CC(C)(C)Oc3ccc(F)cc32)c1 (stereo not drawn) [Example 4, R/S-3,4-Dihydro-2,2-dimethyl-6-fluoro-4-(3-methylphenylaminothiocarbonylamino)-2H-1-benzopyran] | 53.1 ± 3.6% |  |
| Cc1ccc(NC(=S)NC2CC(C)(C)Oc3ccc(Cl)cc32)cc1 (stereo not drawn) [Example 8, R/S-6-Chloro-3,4-dihydro-2,2-dimethyl-4-(4-methylphenylaminothiocarbonylamino)-2H-1-benzopyran] | 32.8 ± 1.9% |  |
| COc1cccc(NC(=S)NC2CC(C)(C)Oc3ccc(F)cc32)c1 (stereo not drawn) [Example 22, R/S-3,4-Dihydro-2,2-dimethyl-6-fluoro-4-(3-methoxyphenylaminothiocarbonylamino)-2H-1-benzopyran] | 52.0 ± 2.3% |  |
| CC1(C)CC(NC(=S)Nc2cccnc2)c2cc(Br)ccc2O1 (stereo not drawn) [Example 42, R/S-6-Bromo-3,4-dihydro-2,2-dimethyl-4-(3-pyridylaminothiocarbonylamino)-2H-1-benzopyran] | 44.3 ± 2.8% |  |
| CC1(C)CC(NC(=O)Nc2cccc(Cl)c2)c2cc(F)ccc2O1 (stereo not drawn) [Example 77, R/S-4-(3-Chlorophenylaminocarbonylamino)-3,4-dihydro-2,2-dimethyl-6-fluoro-2H-1-benzopyran] | 28.0 ± 1.5% |  |
| CC1(C)CC(NC(=O)Nc2ccc(Cl)cc2)c2cc(Br)ccc2O1 (stereo not drawn) [Example 82, R/S-6-Bromo-4-(4-chlorophenylaminocarbonylamino)-3,4-dihydro-2,2-dimethyl-2H-1-benzopyran] | 25.7 ± 1.5% |  |
| CC(N/C(=N\C#N)Nc1ccncc1)C(C)(C)C (stereo not drawn) [Pinacidil, pinacidil] |  | Residual insulin secretion (%) [10 μM] [1]: 96.0 ± 4.2 (20)^c %; EC50 [2]: 350 ± 20 nM |
